Measured values: patent US20250049948A1, “NOVEL IONIZABLE LIPIDS AND LIPID NANOPARTICLES AND METHODS OF USING THE SAME” (Sail Biomedicines, Inc., priority 2021, published 2025)

What was measured:
[1] = Apparent LNP pKa, TNS assay; format: physicochemical; details: LNP with FLUC/EPO 1:1 mRNA
Procedure: For pKa measurement, a […] assay was conducted according to those described in Sabnis et al., Molecular Therapy, 26(6):1509-19), which is incorporated herein by reference in its entirety. Briefly, 20 buffers (10 mM sodium phosphate, 10 mM sodium borate, 10 mM sodium citrate, and 150 mM sodium chloride, in distilled Water) of unique pH values ranging from 3.0-12.0 were prepared using 1M sodium hydroxide and 1M hydrochloric acid. 3.25 μL of a LNP composition (0.04 mg/mL mRNA, in PBS) was incubated with 2 μL of TNS reagent (0.3 mM, in DMSO) and 90 μL of buffer for each pH value (described above) in a 96-well black-walled plate. Each pH condition was performed in triplicate wells. The TNS fluorescence was measured using a Biotek Cytation Plate reader at excitation/emission wavelengths of 321/445 nm. The fluorescence values were then plotted and fit using a 4-parameter sigmoid curve. From the fit, the pH value yielding the half-maximal fluorescence was calculated and reported as the apparent LNP pKa value.

Balb/c mice [2] = assay: In-vivo bioluminescent imaging of LNP compositions (Example 6); details: for Bioluminescence (IV) Liver / Bioluminescence (IV) Lung / Bioluminescence (IV) Spleen / Bioluminescence (IV) Whole Body: 4-6 hours post-dose; for Spleen: Liver Ratio: intravenous
Balb/c mice [3] = assay: EPO levels in plasma, EPO MSD kit (Example 6); format: in vivo; details: mRNA dose 5 μg FLUC + 5 μg EPO, intravenous
[4] = mRNA encapsulation efficiency, Quant-iT RiboGreen RNA Assay; format: physicochemical
Procedure: (§1) For each LNP composition, the lipid mix and mRNA solution were mixed at a 1:3 ratio by volume, respectively, on a NanoAssemblr Ignite (Precision Nanosystems) at a total flow rate of 9 mL/min. The resulting compositions were then loaded into Slide-A-Lyzer G2 dialysis cassettes (10 k MWCO) and dialyzed in 200 times sample volume of 1×PBS for 2 hours at room temperature with gentle stirring. The PBS was refreshed, and the compositions were further dialyzed for at least 14 hours at 4° C. with gentle stirring. The dialyzed compositions were then collected and concentrated by centrifugation at 3000×g using Amicon Ultra centrifugation filters (100 k MWCO). The concentrated particles were characterized for size, polydispersity, and particle concentration using Zetasizer Ultra (Malvern Panalytical) and for mRNA encapsulation efficiency using Quant-iT RiboGreen RNA Assay Kit (ThermoFisher Scientific).

[5] = LNP size and polydispersity, Zetasizer Ultra; format: physicochemical
Procedure: as §1

[6] = mRNA dose 5 μg FLUC (CRE/FLUC 1:1 LNP)

Compound | pKa (TNS) [1] | Bioluminescence (IV) Liver (Balb/c mice [2]; mRNA dose 5 μg FLUC + 5 μg EPO) | Bioluminescence (IV) Lung (Balb/c mice [2]; mRNA dose 5 μg FLUC + 5 μg EPO) | Bioluminescence (IV) Spleen (Balb/c mice [2]; mRNA dose 5 μg FLUC + 5 μg EPO) | Bioluminescence (IV) Whole Body (Balb/c mice [2]; mRNA dose 5 μg FLUC + 5 μg EPO) | Spleen: Liver Ratio (Balb/c mice [2]; mRNA dose 5 μg FLUC + 5 μg EPO) | hEPO (Balb/c mice [3]) | % EE ([4]; LNP with FLUC/EPO 1:1 mRNA) | PDI ([5]; LNP with FLUC/EPO 1:1 mRNA) | Size (nm) ([5]; LNP with FLUC/EPO 1:1 mRNA) | further results
CCCCCCC(CCCCCC)CCCOC(=O)CCCCCCCN(CCCCCCCC(=O)OCCCC(CCCCCC)CCCCCC)C(=O)CCCN(C)C [Compound 2133, bis(4-hexyldecyl) 8,8′-((4-(dimethylamino)butanoyl)azanediyl) dioctanoate] | 7.96 | 4.4E + 04 | 5.8E + 04 | 3.9E + 04 | 3.8E + 04 | 1.574 | 2.5E + 02 | 98.7% | 0.08 | 87.7 nm | –
CCCCCCCCC(CCCCCC)C(=O)OCCCCCCN(CCCCCCOC(=O)C(CCCCCC)CCCCCCCC)CCC(O)CN(C)C (centres unmarked) [Compound 2225, ((4-(dimethylamino)-3-hydroxybutyl)azanediyl) bis(hexane-6,1-diyl) bis(2-hexyldecanoate)] | 7.25 | 1.8E + 05 | 1.0E + 04 | 2.2E + 05 | 3.5E + 05 | 1.261 | – | 97.9% | 0.07 | 81.88 nm | –
CCCCCCCCC(CCCCCC)C(=O)OCCCCCCN(CCCCCCOC(=O)C(CCCCCC)CCCCCCCC)CCOCCOCCN(C)C (centres unmarked) [Compound 2216, 11-(6-((2-hexyldecanoyl)oxy)hexyl)-2-methyl-5,8-dioxa-2,11-diazaheptadecan-17-yl 2-hexyldecanoate] | 7 | 3.2E + 05 | 9.0E + 03 | 3.8E + 05 | 1.5E + 06 | 1.539 | – | 96.8% | 0.11 | 88.81 nm | –
CCCCCCCCCCCOC(=O)CCCCCN(CCCCCCCC(=O)OC(CCCCCCCC)CCCCCCCC)C(C)CO (centres unmarked) [Compound 2249, heptadecan-9-yl 8-((1-hydroxypropan-2-yl)(6-oxo-6-(undecyloxy)hexyl)amino)octanoate] | 5.84 | 1.2E + 07 | 7.9E + 03 | 3.2E + 06 | 7.2E + 07 | 0.258 | 7.6E + 05 | 93.3% | 0.08 | 86.05 nm | –
CCCCCC(CCCCC)CCCOC(=O)CCCCCCCN(CCCCCCCC(=O)OCCCC(CCCCC)CCCCC)C(=O)CN1CCCC1 [Compound 2233, bis(4-pentylnonyl) 8,8′-((2-(pyrrolidin-1-yl)acetyl)azanediyl) dioctanoate] | 6.83 | 6.1E + 07 | 4.1E + 04 | 4.7E + 06 | 5.4E + 08 | 0.077 | 2.8E + 06 | 91.2% | 0.04 | 85.5 nm | –
CCCCCCC(CCCCCC)CCCOC(=O)CCCCCCCN(CCCCCCCC(=O)OCCCC(CCCCCC)CCCCCC)CCC(O)CN(C)C (centres unmarked) [Compound 2139, bis(4-hexyldecyl) 8.8′-((4-(dimethylamino)-3-hydroxybutyl)azanediyl) dioctanoate] | – | 1.7E + 05 | 2.2E + 05 | 1.0E + 05 | 4.1E + 04 | 0.583 | 2.0E + 02 | 98.3% | 0.18 | 88.6 nm | –
CCCCCC(CCCCC)CCCOC(=O)CCCCCCCN(CCCCCCCC(=O)OCCCC(CCCCC)CCCCC)C(=O)CCN1CCC(O)C1 (centres unmarked) [Compound 2235, bis(4-pentylnonyl) 8,8′-((3-(3-hydroxypyrrolidin-1-yl)propanoyl)azanediyl)dioctanoate] | 7.76 | 2.0E + 03 | 7.6E + 03 | 2.9E + 04 | 9.8E + 03 | 14.407 | 2.2E + 02 | 97.5% | 0.067 | 84.84 nm | –
CCCCCCCCCCCOC(=O)CCCCCN(CCCCCCCC(=O)OC(CCCCCCCC)CCCCCCCC)C(C)(C)CO [Compound 2250, heptadecan-9-yl 8-((1-hydroxy-2-methylpropan-2-yl)(6-oxo-6-(undecyloxy)hexyl)amino)octanoate] | 6.31 | 2.7E + 07 | 7.9E + 03 | 2.7E + 06 | 1.5E + 08 | 0.099 | 9.5E + 05 | 92.2% | 0.068 | 73.75 nm | –
CCCCCC(CCCCC)CCCOC(=O)CCCCCCCN(CCCCCCCC(=O)OCCCC(CCCCC)CCCCC)C(=O)CCN1CCCC1 [Compound 2141, bis(4-pentylnonyl) 8,8′-((3-(pyrrolidin-1-yl)propanoyl)azanediyl)dioctanoate] | 7.57 | 3.1E + 04 | 6.8E + 04 | 1.3E + 05 | 1.9E + 05 | 6.131 | 2.1E + 03 | 95.9% | 0.06 | 73.83 nm | Bioluminescence (IV) Liver (Balb/c mice [2]; [6]): 5.6E + 05; Bioluminescence (IV) Lung (Balb/c mice [2]; [6]): 7.1E + 03; Bioluminescence (IV) Spleen (Balb/c mice [2]; [6]): 2.3E + 05; Bioluminescence (IV) Whole Body (Balb/c mice [2]; [6]): 5.5E + 06; Spleen: Liver Ratio (Balb/c mice [2]; [6]): 0.527; % EE ([4]; LNP with CRE/FLUC 1:1 mRNA): 95.6%; % EE ([4]; LNP with EGFP mRNA): 95.4%; PDI ([5]; LNP with CRE/FLUC 1:1 mRNA): 0.11; Size (nm) ([5]; LNP with CRE/FLUC 1:1 mRNA): 79.4 nm; PDI ([5]; LNP with EGFP mRNA): 0.21; Size (nm) ([5]; LNP with EGFP mRNA): 109.3 nm
CCCCCCCCC(CCCCCC)C(=O)OCCCCCCN(CCCCCCOC(=O)C(CCCCCC)CCCCCCCC)C(=O)CCN1CCCC1 (centres unmarked) [Compound 2215, ((3-(pyrrolidin-1-yl)propanoyl)azanediyl)bis (hexane-6,1-diyl) bis(2-hexyldecanoate)] | 7.12 | 2.2E + 06 | 6.5E + 04 | 6.6E + 05 | 3.2E + 07 | 0.449 | – | 96.3% | 0.1 | 80.18 nm | –
